Measurements as given in patent publication US11185078B2 (priority 2016, dated 2021).
Where a SMILES comes first, the peptide text is derived from it. Bridges are numbered along the chain shown (N, C = ends). The star is where a group is joined. ξ: configuration not given here. Pentadecanoyl(3ξ-OH,15-Gua) = N=C(N)NCCCCCCCCCCCCC(O)CC(=O)*

How the values were obtained:
Assay type in all cases: in vivo
[1] = system: Fusarium graminearum (GIBBZE); settings: 360 ppm
[2] = system: Phytophthora infestans (PHYTIN); settings: for % efficacy (% fungal attack) PHYTIN: 360 ppm, in planta
[3] = system: Septoria tritici (SEPTTR); settings: 360 ppm, protective application

Row | Structure (SMILES) | % efficacy (% fungal attack) GIBBZE ([1]; in planta) | % efficacy (% fungal attack), head blight on wheat caused by Fusarium graminearum ([1]; protective application) | % efficacy (% fungal attack) PHYTIN [2] | % efficacy (% fungal attack), head blight on wheat caused by Septoria tritici [3] | % efficacy (% fungal attack), late blight on tomato caused by Phytophthora infestans ([2]; 7.2 ppm, protective application)
1 | CCC(C)C1NC(=O)C(NC(=O)CC(O)CCCCCCCCCCCCNC(=N)N)C(C)OC(=O)C(C)NC(=O)C(CC(N)=O)NC(=O)C(C(C)O)NC(=O)C(Cc2ccc(O)cc2)NC1=O (stereo not drawn) [Compound 1A, fusaricidin 1A] ({Pentadecanoyl(3ξ-OH,15-Gua)}-TIYTNA; ester 1-C; configuration not given here) | 49% | 49% | 100% |  | 
2 | CCC(C)C1NC(=O)C(NC(=O)CC(O)CCCCCCCCCCCCNC(=N)N)C(C)OC(=O)C(C)NC(=O)C(CCC(N)=O)NC(=O)C(C(C)O)NC(=O)C(Cc2ccc(O)cc2)NC1=O (stereo not drawn) [Compound 1B, fusaricidin 1B] ({Pentadecanoyl(3ξ-OH,15-Gua)}-TIYTQA; ester 1-C; configuration not given here) |  |  | 100% | 80% | 44%
